Data as given in patent publication EP1099690A1, “MONOCYCLIC $g(b)-LACTAM COMPOUNDS AND CHYMASE INHIBITORS CONTAINING THE SAME” (SHIONOGI & CO., LTD., priority 1998, dated 2000).

Columns and labels:
IFNγ = experiment: Cytokine production inhibitory activity, Concanavalin A stimulated mononuclear cells, ELISA: IFNγ; type: cell-based; settings: IFNγ in culture supernatant, Concanavalin A 5 µg/ml, forty-eight hours
Description: (§1) After human blood obtained in heparinized tube was layered on the Filcoll - Hypaque mixed solution (density=1.114, mono-poly separation solution, Dainippon Pharmaceutical Co., Ltd.), it was centrifuged to prepare mononuclear cells. The obtained mononuclear cells were suspended in a medium (Macrophage-SFM:GIBCO) to adjust 2 X 10^6 cells/ml and cultivated in 48-well plates. Ten minutes later addition of the compound of the present invention, Concanavalin A (5 µg/ml) was added to stimulate cells. After forty-eight hours, IL-1β, IL-2, IL-4, IL-5, IL-6, TNF-α and IFNγ in the culture supernatant were quantified by ELISA method. The following kits were used for the quantification of these cytokines. • IL-1β: Quantikine(Trademark) Human IL-1β ELISA KIT (R&D system) • IL-2: Quantikine(Trademark) Human IL-2 ELISA KIT (R&D system) • IL-4: Quantikine(Trademark) Human IL-4 ELISA KIT (R&D system) • IL-5: Quantikine(Trademark) Human IL-5 ELISA KIT (R&D system) • IL-6: Quantikine(Trademark) Human IL-6 ELISA KIT (R&D system) • TNF-α: Quantikine(Trademark) Human TNF-α ELISA KIT (R&D system) • IFNγ: Quantikine(Trademark) Human IFNγ ELISA KIT (R&D system)

IL-1β = experiment: Cytokine production inhibitory activity, Concanavalin A stimulated mononuclear cells, ELISA: IL-1β; type: cell-based; settings: IL-1β in culture supernatant, human mononuclear cells, Concanavalin A 5 µg/ml, forty-eight hours
Description: as §1

IL-6 = experiment: Cytokine production inhibitory activity, Concanavalin A stimulated mononuclear cells, ELISA: IL-6; type: cell-based; settings: IL-6 in culture supernatant, Concanavalin A 5 µg/ml, forty-eight hours
Description: as §1

IL-5 = experiment: Cytokine production inhibitory activity, Concanavalin A stimulated mononuclear cells, ELISA: IL-5; type: cell-based; settings: IL-5 in culture supernatant, human mononuclear cells, Concanavalin A 5 µg/ml, forty-eight hours
Description: as §1

IL-2 = experiment: Cytokine production inhibitory activity, Concanavalin A stimulated mononuclear cells, ELISA: IL-2; type: cell-based; settings: IL-2 in culture supernatant, Concanavalin A 5 µg/ml, forty-eight hours
Description: as §1

human chymase = molecular target: T1, human chymase (Homo sapiens, UniProt P23946); experiment: Chymase inhibitory activity (Suc-Ala-Ala-Pro-Phe-pNA substrate, absorption 405 nm); type: biochemical; settings: purified human chymase, 30 minutes at 37 °C preincubation, substrate 0.5 mM
T1 sequence (P23946 22-247): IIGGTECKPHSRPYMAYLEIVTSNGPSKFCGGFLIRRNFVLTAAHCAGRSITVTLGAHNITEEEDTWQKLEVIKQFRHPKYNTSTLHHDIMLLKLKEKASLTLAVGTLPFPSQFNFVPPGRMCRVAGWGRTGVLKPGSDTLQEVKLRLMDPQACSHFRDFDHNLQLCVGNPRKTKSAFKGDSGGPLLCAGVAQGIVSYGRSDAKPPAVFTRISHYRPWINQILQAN
Description: Compound (I) was dissolved in dimethylsulfoxide (DMSO) at 10^-2 M. Concentration of DMSO for activity measurement was 1 %.
Compound (I) dissolved in DMSO and purified human chymase (Takai et al., Clinica Chimica Acta 265, 1997, 13-20) were added to a buffer (0.1M Tris-HCl, 1.8M NaCl pH8.0). After the mixture was treated for 30 minutes at 37 °C, Suc-Ala-Ala-Pro-Phe-pNA (BACHEM Feinchemikalien AG) was added at 0.5 mM as a substrate and the mixture was enzymatically reacted at 37 °C.
After the reaction, the absorption intensity (405 nm) of the solution was measured to calculate the inhibitory rate.

TNF-α = experiment: Cytokine production inhibitory activity, Concanavalin A stimulated mononuclear cells, ELISA: TNF-α; type: cell-based; settings: TNF-α in culture supernatant, human mononuclear cells, Concanavalin A 5 µg/ml, forty-eight hours
Description: as §1

IL-4 = experiment: Cytokine production inhibitory activity, Concanavalin A stimulated mononuclear cells, ELISA: IL-4; type: cell-based; settings: IL-4 in culture supernatant, Concanavalin A 5 µg/ml, forty-eight hours
Description: as §1

IC50 (IFNγ; human mononuclear cells) [µM] | IC50 (IL-1β) [µM] | IC50 (IL-6; human mononuclear cells) [µM] | IC50 (IL-5) [µM] | IC50 (IL-2; human mononuclear cells) [µM] | IC50 (human chymase) [µM] | IC50 (TNF-α) [µM] | IC50 (IL-4; human mononuclear cells) [µM] | IC50 (IFNγ; Homo sapiens) [µM] | IC50 (IL-6; Homo sapiens) [µM] | IC50 (IL-2; Homo sapiens) [µM] | IC50 (IL-4; Homo sapiens) [µM] | SMILES
17.1 | 11.3 | 9.3 | 13.9 | 2.4 | 0.00017 | 6.8 | 20.2 |  |  |  |  | CC(NC(=O)N1C(=O)C(Cc2ccccc2)C1Oc1ccc(C(=O)N2CCN(C)CC2)cc1)c1ccccc1 (stereo not shown) [Compound I-62, 3-Benzyl-2-[4-(4-methyl-piperazine-1-carbonyl)-phenoxy]-4-oxo-azetidine-1-carboxylic acid (1-phenyl-ethyl)-amide]
 | 2.7 |  | 6.5 |  | 0.00046 | 1.9 |  | 12.1 | 6.4 | 2.7 | 11.7 | CC(NC(=O)N1C(=O)C(Cc2ccccc2)C1Oc1ccc(C(=O)N2CCN(C)CC2)cc1)c1ccccc1 (stereo not shown) [Compound I-39, 3-Benzyl-2-[4-(4-methyl-piperazine-1-carbonyl)-phenoxy]-4-oxo-azetidine-1-carboxylic acid (1-phenyl-ethyl)-amide]
